Key:
[1] = Proton exchange pKA of probe; assay type: physicochemical; details: dynamic proton exchange of the probe
Experimental: (§1) Displacement of Mn^2+ from RNA by RSG1.2, or neomycin b: Binding of RSG1.2 and neomycin b to each of the hairpins was studied at [RNA] between 20 and 30 μM, and again at [RNA]˜3 μM. The higher concentration studies were performed in a manner identical to that described above for the Mg^2+ exchange reactions. For the low concentration studies, HPO3^2− (20 mM) was used as the probe ion. Reactions were run in 10 mM PIPES buffer, with 45 mM KCl and [Mn^2+] between 50 and 150 nM. The pH of the samples was maintained at 7.8 in these experiments. Studies utilizing HPO3^2− are impractical at lower pH where the probe undergoes dynamic proton exchange (pKA=6.0) leading to significant shortening of the diamagnetic ^31P T2.

[2] = system: 27-nt A-site RNA construct; experiment: Displacement of Mn2+ from RNA by neomycin (probe 31P relaxation); assay type: binding
Experimental: The ^31P T2 was measured for each sample by varying the length (number of pulses) of the CPMG portion of the pulse sequence in FIG. 2 and determining the effect of this change on the intensity (i) of the signals. […] The dl delay was typically 5 to 20 seconds, and delays in the inept and reverse inept parts of the sequence were set to a value equal to 1/4J, where J is the ^1H—^31P coupling constant. Delays between pulses in the CPMG train varied from 50 to 500 microseconds.
The data shown in FIG. 9 were most consistent with a model where three neomycin molecules were bound to each RNA molecule with subsequent release of Mn^2+.
(§2) Mn^2+ binding by RNA constructs, and its displacement by either K^+ or Mg^2+. Samples containing MeOPH (5 mM) and PIPES buffer (5 mM, pH=7.2), and 3 μM Mn^2+ were titrated with each RNA. The ^31P transverse relaxation rates (R2=1/T2) of the probe in the resulting solutions were measured. Plots of R2 versus [RNA] were prepared. The effects of [K^+] and [Mg^2+] on Mn^2+ binding were determined by titrating similar solutions containing buffer, MeOPH, Mn^2+ and one of the RNAs (10 to 30 μM) with solutions of either KCl or MgCl2, and monitoring the relaxation rate of the probe as a function of cation concentration. The effects of [K^+] were studied over the range of 12.5 to 150 mM ([…] K^+ is reportedly 140 mM). Mn^2+ displacements from each of the hairpins by Mg^2+, neomycin b, and RSG1.2 were studied in the absence of added KCl and with sufficient KCl added to bring the total [K^+] to 100 mM.
as §1, with “Studies utilizing HPO3^2− are impractical at lower pH where the probe undergoes dynamic proton exchange (pKA=6.0) leading to significant shortening of the diamagnetic ^31P T2.” left out

RRE1 = experiment: Displacement of Mn2+ from RNA by neomycin b (probe 31P relaxation); assay type: binding; details: each condition studied
Experimental: as §2
as §1, with “The pH of the samples was maintained at 7.8 in these experiments. Studies utilizing HPO3^2− are impractical at lower pH where the probe undergoes dynamic proton exchange (pKA=6.0) leading to significant shortening of the diamagnetic ^31P T2.” left out

RRE2 = experiment: as above; assay type: binding; details: each condition studied
Experimental: as §2
as §1, with “The pH of the samples was maintained at 7.8 in these experiments. Studies utilizing HPO3^2− are impractical at lower pH where the probe undergoes dynamic proton exchange (pKA=6.0) leading to significant shortening of the diamagnetic ^31P T2.” left out

another RRE1 model = details: cited from earlier work

Structure (SMILES)	pKA [1]	neomycin molecules bound to each RNA molecule ([2]; RNA 27 μM, Mn^2+ 16 μM (Example 11))	equivalents of neomycin bound ([2]; [RNA]=2.7 μM, 100 mM K^+)	equivalents of neomycin bound ([2]; [RNA]=27 μM (Example 16, data not shown))	equivalents of neomycin bound (RRE1)	equivalents of neomycin bound (RRE2)	equivalents of neomycin b bound (another RRE1 model)
O=[PH](O)O [HPO3^2−, phosphite dianion]	6.0	–	–	–	–	–	–
NC[C@@H]1O[C@H](O[C@H]2[C@@H](O)[C@H](O[C@@H]3[C@@H](O)[C@H](N)C[C@H](N)[C@H]3O[C@H]3O[C@H](CN)[C@@H](O)[C@H](O)[C@H]3N)O[C@@H]2CO)[C@H](N)[C@@H](O)[C@@H]1O [neomycin, neomycin b]	–	three	single equivalent	3	multiple equivalents	multiple equivalents	three

Reference: US7037660B2, “Methods for detecting and quantifying binding and inhibition of binding of species to nucleic acids” (Message Pharmaceuticals, priority 2001, dated 2006)
